This passage reports RP-LC retention time results from the METLIN SMRT retention time set (Domingo-Almenara et al. 2019).

The data set is described as follows: gradient 5% acetonitrile 3 min, to 50% in 2 min, to 85% in 15 min, held 3 min, 100 µL/min. The settings on record: column: Zorbax Extend-C18 2.1 x 50 mm; eluents: water / acetonitrile, 0.1% formic acid. A digest of the protocol: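 Mixtures of ~100 pure standards were chromatographed on a Zorbax Extend-C18 column (2.1 × 50 mm, 1.8 μm) at 100 μL/min using water and acetonitrile, each with 0.1% formic acid. Detection used a quadrupole time-of-flight mass spectrometer in positive and negative ionization mode, and data collection spanned 3 months. Retention time was obtained from adduct peaks picked computationally and each checked manually.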
`O=C(NCCOC(=O)c1ccco1)C(=O)Nc1nc(-c2ccccc2)cs1` showed an RP-LC retention time of 887 s.
Consider `COc1ccc(Br)cc1CNC(=O)CCC(=O)N1CCSc2nc(C)cc(C)c21`, for which the RP-LC retention time came out at 725 s.
For the compound `CN(C)C(=O)COC(=O)Cc1ccc(OC(=O)c2ccc(N=C(N)N)cc2)cc1`, the RP-LC retention time was 651 s.
Consider `Cc1cc(C(=O)NCC2CCN(C(=O)Nc3ccc(F)cc3)CC2)c(C)o1`, for which the RP-LC retention time came out at 750 s.
In turn, `O=C(C1CC1)N1CCCC(OCc2nc(-c3ccncc3)no2)C1` (stereo not given) had an RP-LC retention time of 619 s.
Turning to `O=c1c2c(CO)c(-c3ccccc3)nn2ccn1Cc1cccc(C(F)(F)F)c1`, the RP-LC retention time came to 996 s.
On to `COc1ccc(-c2nnc(COc3ccc(NC(=O)c4cnccn4)cc3)o2)cc1`, for which the RP-LC retention time stood at 800 s.
Consider `CN1CCCc2cc(C(CNC(=O)C(=O)NCc3ccccc3)N3CCCC3)ccc21` (stereo not given), for which the RP-LC retention time was determined as 710 s.
The compound `CC(=O)c1cccc(NC(=O)c2ccc(Cl)s2)c1` came in with an RP-LC retention time of 832 s.
For the compound `O=C(CSc1nccnc1Sc1ccccc1)N1CCN(c2ccccn2)CC1`, the RP-LC retention time amounted to 688 s.
As to `CCCNC(=O)N1CCC(c2nc(-c3ccncc3)no2)C1` (stereo not given), the RP-LC retention time stood at 604 s.
Then `CC(C)CCN1CCC(N2CCN(S(=O)(=O)c3ccccc3F)CC2)C1=O` (stereo not given), with 662 s; and `O=C(c1ccc(N2CCCCS2(=O)=O)cc1)N1CCN(C(=O)c2ccco2)CC1`, with 609 s.
For `CCCN(CCC)c1nc(C(=O)OCC)nc2ccccc12`, the RP-LC retention time turned out to be 812 s.
Then `O=C(NCCCN1CCOCC1)C1CCc2sc(C(=O)N3CCCCCC3)cc2C1` (stereo not given), with 560 s; and `O=C(Nc1ccccc1)N1CC(c2nc3ccccc3[nH]2)C1`, with 548 s.
`COc1ccc(CNC(=O)C2(C)CCN(C(=O)Nc3ccc(C)c(F)c3)CC2)cc1` had an RP-LC retention time of 880 s.
Then `CCN(Cc1cn(CC)nc1C)C(=O)CC1=C2CCCCC2N(C)C1=O` (stereo not given), with 648 s; and `Cc1cc(N(C)C)nc(N2CCN(C(=O)c3ccc(-c4ccccc4)cc3)CC2)n1`, with 758 s; and `Cc1ccc(NC(=O)N2CCCC(Cn3cnc4cccnc43)C2)cc1F` (stereo not given), with 718 s.
For `CCn1ccnc1N1CCN(CC(=O)Nc2cc(Cl)ccc2OC)CC1` the value was 552 s; for `Cc1ccc2nc(-c3ccc(O)cc3)c(Nc3ccccc3C)n2c1`, 678 s.
`O=C(NCC(F)(F)F)C1CCN(Cc2noc(-c3ccc(F)cc3)n2)CC1`: the RP-LC retention time was 642 s.
For `Cn1c(=O)c2nc(S(=O)(=O)CCC(=O)Nc3cc(F)ccc3Cl)n(C)c2n(C)c1=O` the value was 778 s; for `O=C(NCCc1noc(C2CC2)n1)C1CCCC1`, 699 s; for `COCCCNc1c(-c2ccc(C)cc2)nc2sc(C(=O)N(C)C)c(C)n12`, 732 s.
Consider `CN(C)c1cccc(C(=O)NCC(=O)Nc2nc3ccccc3[nH]2)c1`, for which the RP-LC retention time was 594 s.
Consider `CN1CCc2cc(C(CNS(=O)(=O)c3ccccc3F)N3CCCC3)ccc21` (stereo not given), for which the RP-LC retention time was 573 s.
Take `Cc1cccc(-c2nc3ccccn3c2NC(=O)NCCc2ccccc2)c1`: the RP-LC retention time came to 680 s.
`O=c1n(CCOc2ccc(F)cc2)nc2ccc(S(=O)(=O)N3CCCCC3)cn12` showed an RP-LC retention time of 938 s.
`Cc1ccc(OC(=O)c2cc3c(C)nn(-c4ccccc4)c3s2)cc1C` displayed an RP-LC retention time of 979 s.
`COc1ccc(-c2cc3n(n2)CCCN(C(=O)Cc2ccsc2)C3)cc1` yielded an RP-LC retention time of 822 s.
Regarding `O=C(CNC(=O)c1ccc(=O)[nH]c1)Nc1ccc(-n2cnnn2)cc1`, the RP-LC retention time stood at 544 s.
Regarding `Cc1ccc2[nH]cc(CCN3CC(C(=O)NC4CCCCCCC4)CC3=O)c2c1` (stereo not given), the RP-LC retention time stood at 907 s.
Consider `Clc1ccccc1C1Cn2cnc(-c3nc(-c4cccnc4)no3)c2CO1` (stereo not given), for which the RP-LC retention time is 825 s.
The compound `CC(=O)c1sc2nc(SC/C=C/c3ccccc3)[nH]c(=O)c2c1C` returned an RP-LC retention time of 977 s.
For `Cc1ccc(CNC(=O)C2(C)CN(S(C)(=O)=O)CC(=O)N2c2ccc(F)cc2)cc1` (stereo not given) the value was 746 s; for `O=C(NC1CCCCC1N1C(=O)CSC1=O)c1cc(Cl)ccc1Cl` (stereo not given), 810 s.
`O=C(CN1CCN(c2ccccn2)CC1)N1c2ccccc2CCc2ccccc21` came in with an RP-LC retention time of 636 s.
Then `CCOc1ccc(-c2noc(Cn3nc4ccc(-c5ccc(C)cc5)nn4c3=O)n2)cc1OC`, with 966 s.
Then `CC(=O)[C@H]1CC[C@H]2[C@@H]3CCC4=CC(=O)C=C[C@]4(C)[C@H]3C(=O)C[C@]12C`, with 921 s; and `COc1nccnc1NC1CCN(C(=O)c2cccn2C)CC1`, with 570 s.
Turning to `CCCNC(=O)NC1CCN(c2nc3cccnc3n(Cc3ccc(C)cc3)c2=O)CC1`, the RP-LC retention time amounted to 1010 s.
For `CC1Oc2ccc(S(=O)(=O)N3CCC(C(=O)Nc4ccc(Cl)cc4)CC3)cc2NC1=O` (stereo not given) the value was 778 s; for `CCCN1CCC(c2cccc(S(C)(=O)=O)c2)CC1`, 600 s; for `COc1ccc(C(=O)COC(=O)c2cccs2)cc1`, 846 s.
`Cc1cc(C)c(NC(=O)Cn2c(=O)cc(-c3nc(C)no3)c3ccccc32)c(C)c1` had an RP-LC retention time of 895 s.
Then `CCNC(=O)CCc1cc2cc(C)ccc2[nH]c1=O`, with 638 s.
Then `CC(NC(=O)C1CCN(c2ncnc3c2oc2ccccc23)CC1)c1ccccc1` (stereo not given), with 735 s; and `O=S(=O)(c1ccccc1Cl)N1CCCC1Cc1noc(-c2ccccc2)n1` (stereo not given), with 1110 s; and `O=C(Cn1c(=O)c2cc(C3CC3)nn2c2ncccc21)NC1CCCC1`, with 705 s.
For `CCNC(=O)C1CCCN(c2nc3ncn(CC(=O)NCc4ccc(OC)cc4)c(=O)c3s2)C1` (stereo not given) the value was 642 s.
Consider `CSc1nc(N)c(C(=O)NC2CCCCC2)s1`, for which the RP-LC retention time came out at 878 s.
Then `CN1CCN(Cc2nn(C)c3c2CN(S(=O)(=O)c2ccccc2Cl)CC3)CC1`, with 615 s; and `Cc1ccn2cc(-c3ccc(NC(=O)c4ccccc4F)cc3)nc2n1`, with 634 s; and `O=C(CSc1ccc(N2CCCC(C(=O)NC3CC3)C2)nn1)Nc1ccc(F)cc1F` (stereo not given), with 617 s.
As to `CC(C)(C)c1noc(-c2cccnc2-n2cnc(C(=O)Nc3ccc(F)cc3)c2)n1`, the RP-LC retention time came to 984 s.
In turn, `COc1ccc(NC(=O)Cn2cccc2-c2nnc(-c3ccccc3)o2)cc1Cl` had an RP-LC retention time of 997 s.
For `CCOc1cc(CNc2ccc3[nH]c(=O)[nH]c3c2)cc(Br)c1OC` the value was 677 s.
Then `COc1ccc(OC)c(S(=O)(=O)Nc2cccn3c(C4CCC4)nnc23)c1`, with 772 s; and `COc1cccc2cc(C(=O)Nc3nnc(Cc4ccc(Cl)s4)o3)oc12`, with 860 s.
`Cn1cnc2c(C(=O)Nc3ccc(F)c(Cl)c3)nn(-c3ccccc3)c2c1=O` had an RP-LC retention time of 976 s.
Then `Cc1ccc(-n2c(=O)c3c(cc(C)n3C)n(CC(=O)Nc3ccccc3C)c2=O)cc1`, with 846 s; and `CCCNC(=O)C1CCCN(c2ccc(SCC(=O)Nc3ccc(C(=O)OC)cc3)nn2)C1` (stereo not given), with 672 s.
For `CCCc1ccc(S(=O)(=O)N2CCC(n3cnc4c(C)cccc4c3=O)CC2)cc1` the value was 640 s.
Then `Cc1ccc(CNC(=O)C2(C)CCCN(C(=O)NC(C)C)C2)cc1` (stereo not given), with 766 s; and `COc1ccc(NC2CC(=O)N(c3ccccc3Cl)C2=O)cc1` (stereo not given), with 627 s; and `O=C(NCc1ccc2c(c1)N(C(=O)c1ccccc1)CC2)NC1CCCC1`, with 818 s.
As to `COC(=O)c1cccc(NC(=O)C2CC(=O)N(c3ccccc3)C2)c1` (stereo not given), the RP-LC retention time was 725 s.
In the case of `COc1ccc(C(=O)Nc2cnn(C)c(=O)c2N2CCCCC2)cc1`, the RP-LC retention time was 923 s.
With `CCOC(=O)C1CCN(C(=O)C2CCN(c3ccc(N4CCCC4)nn3)CC2)CC1`, the RP-LC retention time worked out at 628 s.
For `COc1cccc(-c2noc(Cn3nc4ccc(-c5ccc(C)c(C)c5)nn4c3=O)n2)c1OC` the value was 969 s; for `CSc1ccc(CNC(=O)C2CCCN(c3cnc4nc(C)c(C)nc4c3)C2)cc1` (stereo not given), 755 s.
Then `CCN1CCCC1CNC(=O)C(C)n1c2ccccc2c2cnn(C)c(=O)c21` (stereo not given), with 615 s; and `O=C(NC1CC1)c1ccc(OCC2CCN(C(=O)c3c(F)cccc3Cl)CC2)cc1`, with 837 s.
For `CC(C)N1CCC2(CC1)CN(C(=O)NCc1ccco1)Cc1ccccc1O2` the value was 650 s; for `Cn1nc(C(=O)N2CCOCC2)c2c1CCN(C(=O)Nc1ccc(Br)cc1F)C2`, 713 s.
In turn, `O=C(NCCn1c(=O)n(Cc2ccccc2)c2cccnc21)c1ccccn1` showed an RP-LC retention time of 719 s.
For `O=C(NC1CCN(c2cc(-c3cccs3)[nH]n2)C1)c1ccc(F)c(Cl)c1` (stereo not given) the value was 797 s; for `CCNC(=O)CC1=C2CCCCC2N(C(C)C)C1=O` (stereo not given), 671 s.
